Assay results from ChEMBL document CHEMBL4507318, “Data for DCP probe BAY-985” (2021).

How the values were obtained:
[1] = test system: Phosphatidylinositol 4,5-bisphosphate 3-kinase catalytic subunit alpha isoform (Homo sapiens), P42336 [H1047Y]
[2] = target: Cyclin-dependent kinase 14 (Homo sapiens) (UniProt O94921)
[3] = test system: Receptor-type tyrosine-protein kinase FLT3 (Homo sapiens), P36888 [UNDEFINED MUTATION]
[4] = target: Cyclin-dependent kinase 4 (Homo sapiens) (UniProt P11802)
[5] = target: Ephrin type-A receptor 7 (Homo sapiens) (UniProt Q15375)
[6] = target: Serine/threonine-protein kinase TAO1 (Homo sapiens) (UniProt Q7L7X3)
Chain of Serine/threonine-protein kinase TAO1 (Homo sapiens) (Q7L7X3 whole entry): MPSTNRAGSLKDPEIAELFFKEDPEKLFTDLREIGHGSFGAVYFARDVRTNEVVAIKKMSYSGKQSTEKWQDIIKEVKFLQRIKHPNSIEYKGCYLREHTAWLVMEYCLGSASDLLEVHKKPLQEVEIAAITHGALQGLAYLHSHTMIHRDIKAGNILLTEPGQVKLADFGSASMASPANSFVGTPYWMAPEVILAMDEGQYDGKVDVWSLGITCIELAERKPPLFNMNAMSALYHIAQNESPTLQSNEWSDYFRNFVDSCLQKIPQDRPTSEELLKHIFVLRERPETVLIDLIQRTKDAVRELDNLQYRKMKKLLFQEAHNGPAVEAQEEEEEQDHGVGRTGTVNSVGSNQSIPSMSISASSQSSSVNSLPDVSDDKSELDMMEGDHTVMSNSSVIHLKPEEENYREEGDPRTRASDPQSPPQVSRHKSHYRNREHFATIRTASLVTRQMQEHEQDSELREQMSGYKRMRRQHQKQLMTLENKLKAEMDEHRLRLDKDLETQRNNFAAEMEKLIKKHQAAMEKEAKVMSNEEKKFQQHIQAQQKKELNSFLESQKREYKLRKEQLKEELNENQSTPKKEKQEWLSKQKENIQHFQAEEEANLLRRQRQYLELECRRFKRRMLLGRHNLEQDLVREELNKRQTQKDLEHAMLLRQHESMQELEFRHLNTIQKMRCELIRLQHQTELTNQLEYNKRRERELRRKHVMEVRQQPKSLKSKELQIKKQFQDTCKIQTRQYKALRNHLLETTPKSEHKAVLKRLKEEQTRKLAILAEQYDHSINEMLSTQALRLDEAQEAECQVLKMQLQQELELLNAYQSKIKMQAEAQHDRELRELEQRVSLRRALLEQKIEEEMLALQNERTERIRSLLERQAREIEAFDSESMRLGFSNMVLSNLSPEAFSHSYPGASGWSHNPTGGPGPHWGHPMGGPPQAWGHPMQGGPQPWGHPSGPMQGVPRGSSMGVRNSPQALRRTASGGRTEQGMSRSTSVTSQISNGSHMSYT

[7] = target: Tyrosine-protein kinase Fes/Fps (Homo sapiens) (UniProt P07332)
[8] = target: Tyrosine-protein kinase Tec (Homo sapiens) (UniProt P42680)
Chain of Tyrosine-protein kinase Tec (Homo sapiens) (P42680 whole entry): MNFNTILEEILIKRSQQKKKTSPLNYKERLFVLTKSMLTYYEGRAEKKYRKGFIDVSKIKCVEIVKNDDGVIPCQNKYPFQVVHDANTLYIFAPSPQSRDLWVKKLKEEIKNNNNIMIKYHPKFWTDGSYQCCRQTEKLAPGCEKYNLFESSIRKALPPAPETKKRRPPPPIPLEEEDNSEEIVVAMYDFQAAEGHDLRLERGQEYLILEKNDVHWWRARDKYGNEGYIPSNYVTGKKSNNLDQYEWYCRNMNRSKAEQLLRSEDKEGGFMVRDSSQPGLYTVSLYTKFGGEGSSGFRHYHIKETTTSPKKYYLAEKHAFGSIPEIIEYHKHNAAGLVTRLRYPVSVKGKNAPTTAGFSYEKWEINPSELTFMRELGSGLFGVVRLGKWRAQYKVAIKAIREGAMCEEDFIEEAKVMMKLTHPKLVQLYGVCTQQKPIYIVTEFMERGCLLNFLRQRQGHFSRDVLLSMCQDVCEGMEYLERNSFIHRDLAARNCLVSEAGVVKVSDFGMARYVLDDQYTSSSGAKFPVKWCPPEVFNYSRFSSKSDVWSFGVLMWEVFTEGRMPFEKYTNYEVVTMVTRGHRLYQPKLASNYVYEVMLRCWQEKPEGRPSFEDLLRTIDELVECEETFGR

[9] = target: Serine/threonine-protein kinase BRSK2 (Homo sapiens) (UniProt Q8IWQ3)
[10] = target: cAMP-dependent protein kinase catalytic subunit beta (Homo sapiens) (UniProt P22694)
[11] = test system: Tyrosine-protein kinase ABL1 (Homo sapiens), P00519 [Y253F]
[12] = target: Histamine H1 receptor (Homo sapiens) (UniProt P35367); details: Compound concentration 10.0 uM
[13] = target: Misshapen-like kinase 1 (Homo sapiens) (UniProt Q8N4C8)
[14] = test system: Phosphatidylinositol 4,5-bisphosphate 3-kinase catalytic subunit alpha isoform (Homo sapiens), P42336 [H1047L]
[15] = target: Serine/threonine-protein kinase STK11 (Homo sapiens) (UniProt Q15831)
[16] = target: Wee1-like protein kinase 2 (Homo sapiens) (UniProt P0C1S8)
[17] = target: Serine/threonine-protein kinase TNNI3K (Homo sapiens) (UniProt Q59H18)
[18] = target: Interleukin-1 receptor-associated kinase 1 (Homo sapiens) (UniProt P51617)
[19] = target: Mitogen-activated protein kinase 11 (Homo sapiens) (UniProt Q15759)
[20] = target: Serine/threonine-protein kinase PAK 2 (Homo sapiens) (UniProt Q13177)
[21] = target: Casein kinase I isoform gamma-1 (Homo sapiens) (UniProt Q9HCP0)
Chain of Casein kinase I isoform gamma-1 (Homo sapiens) (Q9HCP0 whole entry, looked up, canonical isoform): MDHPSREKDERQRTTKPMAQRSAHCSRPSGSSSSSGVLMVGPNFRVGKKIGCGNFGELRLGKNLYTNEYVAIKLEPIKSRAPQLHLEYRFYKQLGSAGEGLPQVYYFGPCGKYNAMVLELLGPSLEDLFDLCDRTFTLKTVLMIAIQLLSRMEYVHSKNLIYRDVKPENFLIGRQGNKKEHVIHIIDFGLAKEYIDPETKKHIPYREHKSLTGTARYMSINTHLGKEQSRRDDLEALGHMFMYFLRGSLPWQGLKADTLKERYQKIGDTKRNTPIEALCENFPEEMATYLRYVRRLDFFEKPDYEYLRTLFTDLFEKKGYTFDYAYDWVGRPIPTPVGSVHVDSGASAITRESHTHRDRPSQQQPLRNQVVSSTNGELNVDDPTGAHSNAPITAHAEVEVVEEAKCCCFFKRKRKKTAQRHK

[22] = target: Tyrosine-protein kinase Lyn (Homo sapiens) (UniProt P07948)
[23] = target: Phosphatidylinositol 4,5-bisphosphate 3-kinase catalytic subunit beta isoform (Homo sapiens) (UniProt P42338)
[24] = target: Serine/threonine-protein kinase ULK2 (Homo sapiens) (UniProt Q8IYT8)
[25] = target: Wee1-like protein kinase (Homo sapiens) (UniProt P30291)
Chain of Wee1-like protein kinase (Homo sapiens) (P30291 whole entry, looked up): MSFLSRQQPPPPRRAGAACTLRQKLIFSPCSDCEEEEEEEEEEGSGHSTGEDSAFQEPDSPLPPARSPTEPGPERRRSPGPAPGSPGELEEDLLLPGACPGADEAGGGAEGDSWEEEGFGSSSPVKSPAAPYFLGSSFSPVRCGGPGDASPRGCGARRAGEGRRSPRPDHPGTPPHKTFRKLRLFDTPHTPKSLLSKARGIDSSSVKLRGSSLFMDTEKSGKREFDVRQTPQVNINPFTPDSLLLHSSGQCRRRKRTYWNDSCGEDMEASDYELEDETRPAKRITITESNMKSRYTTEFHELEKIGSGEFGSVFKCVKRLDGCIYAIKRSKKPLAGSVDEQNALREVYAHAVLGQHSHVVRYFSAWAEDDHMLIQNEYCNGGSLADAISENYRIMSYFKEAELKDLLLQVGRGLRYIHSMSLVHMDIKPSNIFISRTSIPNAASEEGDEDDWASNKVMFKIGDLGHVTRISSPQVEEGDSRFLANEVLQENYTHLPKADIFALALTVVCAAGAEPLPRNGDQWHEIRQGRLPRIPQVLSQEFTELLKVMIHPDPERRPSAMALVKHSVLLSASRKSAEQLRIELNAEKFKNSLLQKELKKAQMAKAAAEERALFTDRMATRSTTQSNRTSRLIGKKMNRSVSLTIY

[26] = target: Maternal embryonic leucine zipper kinase (Homo sapiens) (UniProt Q14680)
[27] = target: Proto-oncogene tyrosine-protein kinase receptor Ret (Homo sapiens) (UniProt P07949)
[28] = target: Serine/threonine-protein kinase PAK 6 (Homo sapiens) (UniProt Q9NQU5)
[29] = target: Serine/threonine-protein kinase PRP4 homolog (Homo sapiens) (UniProt Q13523)
[30] = target: Serine/threonine-protein kinase tousled-like 2 (Homo sapiens) (UniProt Q86UE8)
[31] = target: Dual specificity tyrosine-phosphorylation-regulated kinase 1A (Homo sapiens) (UniProt Q13627)
[32] = target: Calcium/calmodulin-dependent protein kinase kinase 2 (Homo sapiens) (UniProt Q96RR4)
[33] = target: MAP/microtubule affinity-regulating kinase 3 (Homo sapiens) (UniProt P27448)
[34] = target: D(1A) dopamine receptor (Homo sapiens) (UniProt P21728); details: Compound concentration 10.0 uM
[35] = target: LIM domain kinase 2 (Homo sapiens) (UniProt P53671)
[36] = target: Calcium/calmodulin-dependent protein kinase type 1B (Homo sapiens) (UniProt Q6P2M8)
[37] = target: Ribosomal protein S6 kinase alpha-5 (Homo sapiens) (UniProt O75582)
[38] = target: Interleukin-1 receptor-associated kinase 4 (Homo sapiens) (UniProt Q9NWZ3)
Chain of Interleukin-1 receptor-associated kinase 4 (Homo sapiens) (Q9NWZ3 whole entry): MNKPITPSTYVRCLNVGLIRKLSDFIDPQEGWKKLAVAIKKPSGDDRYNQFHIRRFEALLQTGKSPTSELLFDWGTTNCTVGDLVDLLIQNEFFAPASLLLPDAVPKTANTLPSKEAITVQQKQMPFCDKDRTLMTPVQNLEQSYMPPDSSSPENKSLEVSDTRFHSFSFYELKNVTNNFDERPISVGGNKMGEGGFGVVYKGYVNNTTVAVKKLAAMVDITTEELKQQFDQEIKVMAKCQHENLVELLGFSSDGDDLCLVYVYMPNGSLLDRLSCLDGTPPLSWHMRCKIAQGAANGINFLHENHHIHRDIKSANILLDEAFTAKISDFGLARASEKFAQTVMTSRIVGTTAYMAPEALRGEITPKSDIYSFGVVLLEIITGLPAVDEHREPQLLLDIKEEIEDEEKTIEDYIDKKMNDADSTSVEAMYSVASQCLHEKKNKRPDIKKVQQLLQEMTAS

[39] = target: Histamine H2 receptor (Homo sapiens) (UniProt P25021); details: Compound concentration 10.0 uM
Chain of Histamine H2 receptor (Homo sapiens) (P25021 whole entry): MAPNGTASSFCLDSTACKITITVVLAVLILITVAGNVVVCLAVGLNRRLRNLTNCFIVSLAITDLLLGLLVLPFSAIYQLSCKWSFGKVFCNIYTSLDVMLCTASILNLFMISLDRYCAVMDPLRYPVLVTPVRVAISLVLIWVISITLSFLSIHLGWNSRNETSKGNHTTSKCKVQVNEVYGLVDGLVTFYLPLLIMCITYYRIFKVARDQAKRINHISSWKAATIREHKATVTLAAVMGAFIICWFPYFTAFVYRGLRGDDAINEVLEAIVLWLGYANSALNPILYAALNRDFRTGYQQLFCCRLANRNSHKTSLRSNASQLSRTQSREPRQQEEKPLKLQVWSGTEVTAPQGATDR

[40] = target: Dual specificity protein kinase CLK2 (Homo sapiens) (UniProt P49760)
Chain of Dual specificity protein kinase CLK2 (Homo sapiens) (P49760 whole entry, looked up): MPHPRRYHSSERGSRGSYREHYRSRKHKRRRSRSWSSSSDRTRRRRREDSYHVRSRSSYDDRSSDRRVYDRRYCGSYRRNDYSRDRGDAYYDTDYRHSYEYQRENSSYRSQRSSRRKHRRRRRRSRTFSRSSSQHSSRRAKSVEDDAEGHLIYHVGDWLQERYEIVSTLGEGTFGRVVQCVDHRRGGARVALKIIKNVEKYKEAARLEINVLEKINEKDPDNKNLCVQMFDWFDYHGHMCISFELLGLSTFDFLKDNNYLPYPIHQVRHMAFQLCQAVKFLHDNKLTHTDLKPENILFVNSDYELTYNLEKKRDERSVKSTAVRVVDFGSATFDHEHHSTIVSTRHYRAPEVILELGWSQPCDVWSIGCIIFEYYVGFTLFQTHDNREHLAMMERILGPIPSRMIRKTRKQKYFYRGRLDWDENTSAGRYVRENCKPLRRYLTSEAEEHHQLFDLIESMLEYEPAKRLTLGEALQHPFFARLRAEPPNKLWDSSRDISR

[41] = target: MAP kinase-interacting serine/threonine-protein kinase 2 (Homo sapiens) (UniProt Q9HBH9)
Chain of MAP kinase-interacting serine/threonine-protein kinase 2 (Homo sapiens) (Q9HBH9 whole entry, looked up, canonical isoform): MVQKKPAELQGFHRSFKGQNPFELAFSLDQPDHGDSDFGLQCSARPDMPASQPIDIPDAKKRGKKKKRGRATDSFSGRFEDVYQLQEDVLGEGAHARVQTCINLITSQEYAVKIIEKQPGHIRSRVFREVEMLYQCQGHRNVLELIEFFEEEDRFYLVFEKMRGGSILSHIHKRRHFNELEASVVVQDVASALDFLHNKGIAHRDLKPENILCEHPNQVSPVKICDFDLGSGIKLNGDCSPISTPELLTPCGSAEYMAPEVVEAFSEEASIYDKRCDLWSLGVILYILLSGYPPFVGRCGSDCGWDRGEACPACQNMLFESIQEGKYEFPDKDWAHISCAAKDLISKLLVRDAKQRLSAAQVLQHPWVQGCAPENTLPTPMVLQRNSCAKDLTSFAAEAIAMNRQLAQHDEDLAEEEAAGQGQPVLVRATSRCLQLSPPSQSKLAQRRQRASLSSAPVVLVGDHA

[42] = target: Phosphatidylinositol 4,5-bisphosphate 3-kinase catalytic subunit gamma isoform (Homo sapiens) (UniProt P48736)
[43] = test system: Phosphatidylinositol 4,5-bisphosphate 3-kinase catalytic subunit alpha isoform (Homo sapiens), P42336 [I800L]
[44] = test system: Tyrosine-protein kinase ABL1 (Homo sapiens), P00519 [H396P]
[45] = Compound concentration 1000.0 nM
[46] = Compound concentration 100.0 nM

Chain of Cyclin-dependent kinase 14 (Homo sapiens) (O94921 whole entry): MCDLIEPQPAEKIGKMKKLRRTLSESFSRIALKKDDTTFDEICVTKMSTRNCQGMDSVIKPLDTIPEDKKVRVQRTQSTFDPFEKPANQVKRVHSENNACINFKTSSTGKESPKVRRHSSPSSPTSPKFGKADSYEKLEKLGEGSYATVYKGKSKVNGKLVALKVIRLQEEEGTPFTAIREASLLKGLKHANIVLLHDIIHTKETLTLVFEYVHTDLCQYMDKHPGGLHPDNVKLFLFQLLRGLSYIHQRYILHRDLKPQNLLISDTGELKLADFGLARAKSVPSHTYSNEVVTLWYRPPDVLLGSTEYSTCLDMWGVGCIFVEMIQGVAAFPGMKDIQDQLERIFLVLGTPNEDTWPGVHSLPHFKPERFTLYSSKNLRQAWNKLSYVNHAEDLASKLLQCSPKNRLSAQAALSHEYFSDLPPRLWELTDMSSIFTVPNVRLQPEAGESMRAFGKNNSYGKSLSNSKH

## CN(C)c1ncnc(-c2ccc3nc(Nc4cc(CN5CCN(C(=O)CC(F)(F)F)CC5)ccn4)[nH]c3c2)c1Cl [BAY-440]
[1]; [45]
  residual activity: 74%
[2]; [45]
  residual activity: 100%
[3]; [45]
  residual activity: 86%
[4]; [45]
  residual activity: 70%
[5]; [45]
  residual activity: 100%
[6]; [45]
  residual activity: 77%
[7]; [45]
  residual activity: 100%
[8]; [45]
  residual activity: 100%
[9]; [45]
  residual activity: 100%
[10]; [45]
  residual activity: 76%
[11]; [45]
  residual activity: 37%
[12]
  inhibition: 26.4%
[13]; [45]
  residual activity: 57%
[14]; [45]
  residual activity: 61%
[15]; [45]
  residual activity: 99%
[16]; [45]
  residual activity: 100%
[17]; [45]
  residual activity: 50%
[18]; [45]
  residual activity: 44%
[19]; [45]
  residual activity: 97%
[20]; [45]
  residual activity: 100%
[21]; [45]
  residual activity: 76%
[22]; [45]
  residual activity: 94%
[23]; [45]
  residual activity: 82%
[24]; [45]
  residual activity: 64%
[25]; [45]
  residual activity: 100%
[26]; [45]
  residual activity: 95%
[27]; [45]
  residual activity: 77%
[28]; [45]
  residual activity: 100%
[29]; [45]
  residual activity: 100%
[30]; [45]
  residual activity: 100%
[31]; [45]
  residual activity: 77%
[32]; [45]
  residual activity: 88%
[33]; [45]
  residual activity: 100%
[34]
  inhibition: 23%
[35]; [45]
  residual activity: 100%
[36]; [45]
  residual activity: 72%
[37]; [45]
  residual activity: 100%
[38]; [45]
  residual activity: 39%
[39]
  inhibition: 32.6%
[40]; [45]
  residual activity: 90%
[41]; [45]
  residual activity: 37%
[42]; [45]
  residual activity: 100%
[43]; [45]
  residual activity: 35%
[44]; [45]
  residual activity: 44%

## C[C@H](c1ccnc(Nc2nc3ccc(-c4cc(N(C)C)ncn4)cc3[nH]2)c1)N1CCN(C(=O)CC(F)(F)F)CC1 [BAY-985]
[1]; [46]
  residual activity: 100%
[2]; [46]
  residual activity: 100%
[3]; [46]
  residual activity: 100%
[4]; [46]
  residual activity: 89%
[5]; [46]
  residual activity: 100%
[6]; [46]
  residual activity: 100%
[7]; [46]
  residual activity: 75%
[8]; [46]
  residual activity: 100%
[9]; [46]
  residual activity: 100%
[10]; [46]
  residual activity: 100%
[11]; [46]
  residual activity: 91%
[12]
  inhibition: 35%
[13]; [46]
  residual activity: 94%
[14]; [46]
  residual activity: 100%
[15]; [46]
  residual activity: 100%
[16]; [46]
  residual activity: 98%
[17]; [46]
  residual activity: 59%
[18]; [46]
  residual activity: 100%
[19]; [46]
  residual activity: 89%
[20]; [46]
  residual activity: 68%
[21]; [46]
  residual activity: 100%
[22]; [46]
  residual activity: 97%
[23]; [46]
  residual activity: 100%
[24]; [46]
  residual activity: 100%
[25]; [46]
  residual activity: 96%
[26]; [46]
  residual activity: 100%
[27]; [46]
  residual activity: 100%
[28]; [46]
  residual activity: 100%
[29]; [46]
  residual activity: 80%
[30]; [46]
  residual activity: 99%
[31]; [46]
  residual activity: 98%
[32]; [46]
  residual activity: 77%
[33]; [46]
  residual activity: 100%
[34]
  inhibition: 1.63%
[35]; [46]
  residual activity: 88%
[36]; [46]
  residual activity: 100%
[37]; [46]
  residual activity: 88%
[38]; [46]
  residual activity: 100%
[39]
  inhibition: 3.55%
[40]; [46]
  residual activity: 65%
[41]; [46]
  residual activity: 86%
[42]; [46]
  residual activity: 100%
[43]; [46]
  residual activity: 100%
[44]; [46]
  residual activity: 87%
